Assays:
Type in all cases: cell-based
[1] = tested on: HepG2 cells; test: Measurement of Dil-LDL uptake in HepG2 cells; details: Homo sapiens, 24 h, 10 μM for 20 h, then 20 μg/mL Dil-LDL 4 h, read-out: LDL uptake 10 μM (fold of vehicle)
Protocol: HepG2 cells were maintained in MEM supplemented with 10% FBS. The cells were seeded in 96 well black plates at a density of 1×10^4 cells per well and grown to 70-80% confluence. Afterwards, cells were changed to serum-free Opti-MEM for 1 h and followed by incubation with 10 μM Berberine or compounds of the present disclosure for 20 h. Then, 20 μg/mL Dil-LDL was added and incubated at 37° C. in the dark for additional 4 h. Cells were extensively washed three times with PBS, and LDL uptake was determined on a fluorescence plate reader at an excitation wavelength of 520 nm and emission wavelength of 580 nm.

[2] = tested on: PCSK9; test: PCSK9 ELISA on HepG2 culture medium; details: HepG2 cells, 24 hr
Protocol: (§1) HepG2 cells (ATCC, Cat.: HB-8065) were maintained in Growth medium-Eagle's Minimum Essential Medium (Corning, 10-010-CVR), 10% FBS (Gibco, 10099-141), Penicillin (100 units/mL), Streptomycin ([…]). HepG2 cells were incubated at 37° C., 5% CO2. HepG2 cells were plated in flat bottom 96-well plates (Corning, 3599) at 40,000 cells/well in 100 μL of growth media. After an overnight incubation, the culture media were changed to serum-free OptiMEM media (Gibco, 31985-062), 90 μL/well. Vehicle, PF-06446846 hydrochloride, berberine, or test compound was added to the culture media, 10 μL/well. After 24 hr medium was harvested, and 10 μL of the medium were used for the PCSK9 ELISA (R&D Systems, SPC900).

[3] = tested on: PCSK9 mRNA; test: RT-Q-PCR analysis of PCSK9 mRNA in HepG2 cells; details: Homo sapiens, 24 h, normalized to GAPDH, read-out: HepG2 Q-PCR PCSK9 mRNA level decrease (10 μM)
Protocol: HepG2 cells (ATCC, Cat.: HB-8065) were maintained in Growth medium-Eagle's Minimum Essential Medium (Corning, 10-010-CVR), 10% FBS (Gibco, 10099-141), Penicillin (100 units/mL), Streptomycin ([…]). HepG2 cells were incubated at 37° C., 5% CO2.
Cells were cultured in growth medium as described above and treated with the vehicle, Berberine or test compound for 24 h. The RNA was extracted using the Total RNA mini Kit (Tiangen, Beijing, China) according to the manufacturer's instructions. Reverse transcription was carried out using the High-Capacity cDNA reverse transcription kit (Thermo Fisher Scientific). Quantitative real-time PCR was performed using a reaction mixture containing cDNA, specific primers [PCSK9, 5′-[…]-3′ (forward) and 5′-[…]-3′ (reverse); GAPDH, 5′-[…]-3′ (forward) and 5′-[…]-3′ (reverse)] and Maxima SYBR Green/ROX qPCR Master Mix (Thermo Fisher Scientific). PCR amplification was carried out in a Real-Time PCR System. The real-time PCR conditions were 37° C. 10 min; 95° C. 10 min; 95° C. 15 s, 60° C. 30 s, 72° C. 30 s, 40 cycle. The amount of % RNA was normalized to the GAPDH level in the same samples.

[4] = tested on: HepG2 cells; test: Cell viability assay (HepG2 Survival assay, CellTiter-Glo); details: 24 hr, cellular ATP levels
Protocol: as §1, with “black clear” for “flat”, “3063)” for “3599)”, “cellular ATP levels” for “medium was harvested, and 10 μL of the medium”, “measured using CellTiter-Glo® 2.0 Assay (Promega, G9242).” for “used for the PCSK9 ELISA (R&D Systems, SPC900).”

Row | SMILES | fold induction at 10 µM [1] | HepG2 PCSK9 ELISA (10 μM) % inhibition [2] [%] | inhibition at 10 µM [3] [%] | HepG2 Survival assay (10 μM) [4] [%]
1 | COc1ccc2cc3[n+](cc2c1OC)CCc1cc2c(cc1-3)OCO2 [Berberine, reference compound] | 2.54 | 52 | 35 | 
2 | CN(C(=O)CN(CC(=O)Nc1ccc(Oc2ccc(F)cc2)cc1)C(=O)c1cc2cccc(F)c2[nH]1)C1Cc2ccccc2C1 [Compound 201-29] | 3.07 | 61 | 88.5 | 100
3 | CN(C(=O)CN(CC(=O)Nc1ccc(Oc2ccccc2)cc1)C(=O)c1cc2cccc(F)c2[nH]1)C1Cc2ccccc2C1 [Compound 201-31] | 2.07 | 48 | 73 | 100
4 | CN(C(=O)CN(CC(=O)Nc1ccc(Oc2ccc(F)cc2)cc1)C(=O)c1cc2cccc(F)c2[nH]1)C1CCCC1 [Compound 201-65] | 1.84 | 85 | 87 | 100
5 | CN(C(=O)CN(CC(=O)Nc1ccc(Oc2ccccc2)cc1)C(=O)c1cc2cccc(F)c2[nH]1)C1CCCC1 [Compound 201-70] | 1.69 | 76 | 85 | 100
6 | CN(Cc1ccccc1F)C(=O)CN(CC(=O)Nc1ccc(Oc2ccccc2)cc1)C(=O)c1cc2cccc(F)c2[nH]1 [Compound 201-74] | 3.92 | 77 | 88 | 96
7 | CN(C(=O)CN(CC(=O)Nc1ccc(Oc2ccc(F)c(F)c2)cc1)C(=O)c1cc2cccc(F)c2[nH]1)C1CCCC1 [Compound 201-75] | 2.92 | 80 | 90 | 100
8 | CN(C(=O)CN(CC(=O)Nc1ccc(Oc2ccc(F)c(F)c2)cc1)C(=O)c1cc2cccc(F)c2[nH]1)C1Cc2ccccc2C1 [Compound 201-80] | 3.07 | 80 | 88 | 100
9 | CN(C(=O)CN(CC(=O)Nc1ccc(Oc2ccc(F)cc2)cc1)C(=O)c1ccc(C(F)(F)F)o1)C1Cc2ccccc2C1 [Compound 201-104] | 4.15 | 83 | 86 | 100
10 | CN(Cc1ccccc1F)C(=O)CN(CC(=O)Nc1ccc(Oc2ccccc2)cc1)C(=O)c1ccc(C(F)(F)F)o1 [Compound 201-109] | 4.69 | 92 | 90 | 100
11 | CN(C(=O)CN(CC(=O)Nc1ccc(Oc2ccccc2)cc1)C(=O)c1ccc(C(F)(F)F)o1)C1Cc2ccccc2C1 [Compound 201-110] | 4.76 | 84 | 88 | 100
12 | CN(Cc1ccccc1F)C(=O)CN(CC(=O)Nc1ccc(Oc2ccc(F)c(F)c2)cc1)C(=O)c1ccc(C(F)(F)F)o1 [Compound 201-115] | 4.07 | 90 | 90 | 100
13 | CN(C(=O)CN(CC(=O)Nc1ccc(Oc2ccc(F)c(F)c2)cc1)C(=O)c1ccc(C(F)(F)F)o1)C1Cc2ccccc2C1 [Compound 201-116] | 3.76 | 81 | 88 | 100
14 | CN(C(=O)CN(CC(=O)Nc1ccc(Oc2ccc(F)c(F)c2)cc1)C(=O)c1ccco1)C1Cc2ccccc2C1 [Compound 201-134] | 5.3 | 90 | 92 | 100
15 | O=C(CN(CC(=O)Nc1ccc(Oc2ccc(C(F)(F)F)cc2)cc1)C(=O)c1cc2cccc(F)c2[nH]1)NCc1ccccc1 [Compound 201-205] | 1.1 | 85 | 92 | 90
16 | CC(C)c1ccc(Oc2ccc(NC(=O)CN(CC(=O)NC3CCCC3)C(=O)c3cc4cccc(F)c4[nH]3)cc2)cc1 [Compound 201-227] | 1.37 | 71 | 56 | 112
17 | CC(C)c1ccc(Oc2ccc(NC(=O)CN(CC(=O)NCc3ccccc3)C(=O)c3cc4cccc(F)c4[nH]3)cc2)cc1 [Compound 201-242] | 2.43 | 74 | 77 | 115
18 | CC(C)c1ccc(Oc2ccc(NC(=O)CN(CC(=O)NCc3ccccc3)C(=O)c3ccc(C(F)(F)F)o3)cc2)cc1 [Compound 201-245] | 1.11 | 76 |  | 101
19 | CC(C)c1ccc(Oc2ccc(NC(=O)CN(CC(=O)NCc3ccccc3)C(=O)c3cc4cccc(C#N)c4[nH]3)cc2)cc1 [Compound 201-253] | 1.77 | 61 | 59 | 110
20 | COc1ccc(Oc2ccc(NC(=O)CN(CC(=O)Nc3ccccc3)C(=O)c3cc4cccc(F)c4[nH]3)cc2)cc1 [Compound 201-256] | 2.43 | 78 | 75 | 109
21 | CC(C)c1ccc(Oc2ccc(NC(=O)CN(CC(=O)Nc3ccccc3)C(=O)c3ccc(C(F)(F)F)[nH]3)cc2)cc1 [Compound 201-265] | 1.57 | 71 | 76 | 93
22 | N#Cc1cccc2cc(C(=O)N(CC(=O)Nc3ccccc3)CC(=O)Nc3ccc(Oc4ccc(C(F)(F)F)cc4)cc3)[nH]c12 [Compound 201-267] | 1.34 | 56 | 79 | 103
23 | CC(C)c1ccc(Oc2ccc(NC(=O)CN(CC(=O)Nc3ccccc3)C(=O)c3cc4cccc(C#N)c4[nH]3)cc2)cc1 [Compound 201-269] | 1.34 | 53 | 87 | 106

Source: patent US20230122967A1, “NOVEL COMPOUNDS AS INHIBITORS OF PCSK9” (SHENGKE PHARMACEUTICALS (JIANGSU) LTD., priority 2020, published 2023)
